Experimental data: patent US12414979B2, “Compositions and methods for treating Sjogren's syndrome” (Interlude Biopharma Co., priority 2019, dated 2025)
No end group written: not given here.

Tested on: PAR-C10 cells
Test: Trans-epithelial electrical resistance (TEER) assay of tight junction integrity in PAR-C10 monolayers treated with IFNγ and TNFα
Format: cell-based, rat
Details: for prevention of cytokine-induced drop in TEER: co-incubation with IFNγ and TNFα, larazotide acetate 1 mM and 5 mM, other compounds 5 mM and 10 mM, FIG. 1-3
Text: Specifically, an in vitro assay system to measure tight junction integrity was established using PAR-C10 cells, an immortalized rat acinar epithelial cell line, which mimic the biochemical and functional characteristics of primary salivary gland acinar cells. PAR-C10 cells form a monolayer of cuboidal cells, and are attached to each other with well-formed junctional complexes. PAR-C10 cells have been used to model the effect of inflammatory cytokines on tight junctions in vitro. Quissell et al., (1998) In Vitro Cell. Dev. Biol. Anim. 34: 58-67; Baker et al., Am. J. Cell Physiol. 295:C1191-1201. The cells were seeded on permeable supports in 12 well plates and cultured to form monolayers. The trans-epithelial electrical resistance (TEER) across the epithelial monolayer was measured to evaluate formation of tight junction between the cells. Three ng/ml of each pro-inflammatory cytokines, interferon gamma (IFNγ) and tumor necrosis factor alpha (TNFα) were added to the monolayers and incubated for 24 hours in order to cause tight junction disruption. Larazotide acetate (1 mM and 5 mM) or any one of 4-Aminosalicylic acid (4-ASA), 4-Amino-phenyl-acetic acid (4-APAA), and 4-Acetyl amino-phenyl-acetic acid (4-Ac APAA) (5 or 10 mM) of was added to the apical surface and the cells allowed to grow for an additional 24 hours. The compounds were dissolved in dimethyl sulfoxide and added to the culture media to obtain a final concentration of 5 mM and 10 mM each.
TEER measurements were used to determine the effect of larazotide acetate (1 or 5 mM) and other anti-inflammatory compounds (4-Aminosalicylic acid (4-ASA), 4-Amino-phenyl-acetic acid (4-APAA), and 4-Acetyl amino-phenyl-acetic acid (4-Ac APAA)) (5 or 10 mM) on tight junctions, in the presence of cytokines. To determine a therapeutic effect, the cells were pre-treated with cytokines, and the ability of larazotide acetate (1 or 5 mM) or 4-ASA, 4-APAA, and 4-Ac APAA (each at 5 or 10 mM) to reverse junctional disruption was evaluated. Wells not treated with cytokines were used as controls. p values were determined by Kruskal Wallis tests, and adjusted p values were determined by Dunns post test.

Row | Molecule | prevention of cytokine-induced drop in TEER | prevention of cytokine induced disruption of tight junctions (TEER) (5 mM concentration, 2 independent experiments, FIG. 2) | reversal of cytokine-mediated drop in TEER (monolayers incubated with IFNγ and TNFα for 24 hours, then larazotide acetate (1 mM and 5 mM) on apical surface for additional 24 hours, FIG. 4)
1 | CC(=O)Nc1ccc(CC(=O)O)cc1 [4-Acetyl amino-phenyl-acetic acid, (4-acetylaminophenyl)-acetic acid, reference compound] | significantly prevent a drop in TEER |  | 
2 | Nc1ccc(CC(=O)O)cc1 [4-Amino-phenyl-acetic acid, 4-aminophenylacetic acid] | significantly prevent a drop in TEER |  | 
3 | Nc1ccc(C(=O)O)c(O)c1 [4-Aminosalicylic acid, reference compound] | significantly prevent a drop in TEER |  | 
4 | GGVLVQPG [larazotide acetate] | significantly prevent a drop in TEER | can reproducibly prevent cytokine induced disruption of tight junctions | able to reverse the cytokine-mediated drop in TEER
